Columns and labels:
[1] = Mouse liver pharmacokinetics (liver triphosphate levels) following a single oral dose; format: in vivo, mice; conditions: for Fold change Mouse Liver GemC TP compared to Gemcitabine / Fold change Mouse Liver GemC TP produced compared to GemU TP: single oral dose, calculated from Table 2 data
Description: A single oral dose of test compound in PEG 200 (dose volume 5 mL/kg) was administered to C57BL/6 male mice. Five untreated animals were used for the collection of control plasma and liver. Terminal plasma and liver samples were collected from three animals per time point at 1, 2, 4, 12, and 24 hours post dose. Liver specimens were collected from all animals immediately after the incision. Freezing forceps stored in liquid nitrogen were used to freeze the liver before excision. […]
Liver samples were analyzed for corresponding active triphosphate species by LC-MS/MS. Triphosphate levels were assayed by homogenizing (on ice) a known weight of mouse liver with 4× volume of 0.95 M trichloroacetic acid (TCA). Internal standard solution was added to the homogenate followed by neutralization with 20% ammonium hydroxide solution and addition of 500 μL 1% formic acid. The tissue samples were extracted by weak anion exchange solid phase extraction (SPE). Post extraction, the eluates were evaporated under nitrogen, followed by reconstitution before injection onto the LC-MS/MS system. The samples were chromatographed on a Luna NH2 column using a gradient system of ammonium acetate (1 mM to 20 mM and pH 8.0 to pH 10.0) in water and acetonitrile (70:30). The analyte was detected and quantified by tandem mass spectrometry in positive ion mode on an API4000 equipped with a Turbo Ionspray® interface. The calibration range was 10 to 10000 pmol/mL in mouse liver homogenate (50 to 50000 pmol/g of mouse liver).

HepG2 cell line = assay: In Vitro Inhibition of Hep G2 Hepatocytes (CellTiter-Glo, 72 hr); format: cell-based; conditions: HepG2 cells, 72 hr exposure
Description: Cells were grown in RPMI-1640 supplemented with L-glutamine and 10% FBS: HepG2.
96 well plates of HepG2 cell line were seeded with the optimized number of cells per well in a total volume of 50 μL per well. The plates were left overnight. Some wells were seeded with 100 μL of media for media control. The following day, cells were exposed to test compounds. At same time as drug exposure, a CTG assay was conducted on 1st plate for the 0 hr count.
2× stocks of each compound in media were prepared for dosing, as follows:
50 μL of above 2× stocks were added to cells and medium already on plate to give final concentrations. 50 μL media were added to cell control wells, and 50 μL of mix added to vehicle control wells. 10 μM Dox was added to appropriate wells. Cells exposed to test compounds were incubated at 37° C. for 72 hr followed by a CTG assay.
At the end of the 72 hr exposure period, plates were removed for a CellTiter-Glo (CTG) assay from a 37° C., 5% CO2 incubator and placed on the bench at room temperature for 30 mins. 100 μL of CellTiter-Glo reagent was added and mixed for 2 mins, followed by a further 10 min incubation at room temperature. Luminescence was recorded using Synergy 4.0.

Row | Compound | Fold change Mouse Liver GemC TP compared to Gemcitabine [1] | Fold change Mouse Liver GemC TP produced compared to GemU TP [1] | IC50 (HepG2 cell line; Homo sapiens) | also measured
1 | CC(C)OC(=O)[C@@H](C)NP(=O)(OC[C@H]1O[C@@H](n2ccc(N)nc2=O)C(F)(F)[C@@H]1O)Oc1ccccc1 (single isomer, unassigned) [Compound 4, Diastereomer 1] | ++++++ (100 < ++++++) | ++++ (25 < ++++ ≤ 50) | > 10 µM | Clast ([1]; analyte GemU TP in mouse liver, single oral dose 182 mg/kg in PEG 200, 182 mg/kg): +++ (5,000 < +++ ≤ 15,000)
2 | CC(C)OC(=O)[C@@H](C)NP(=O)(OC[C@H]1O[C@@H](n2ccc(N)nc2=O)C(F)(F)[C@@H]1O)Oc1ccccc1 (single isomer, unassigned) [Compound 4, Diastereomer 2] | ++ (5 < ++ ≤ 10) | +++ (10 < +++ ≤ 25) | – | IC50 (HepG2 cell line): > 10 µM
3 | C[C@H](NP(=O)(OC[C@H]1O[C@@H](n2ccc(N)nc2=O)C(F)(F)[C@@H]1O)Oc1ccccc1)C(=O)OCc1ccccc1 (single isomer, unassigned) [drawing 124] | – | – | 1 to 10 µM | Fold change Mouse Liver GemC TP compared to Gemcitabine ([1]; listed as drawing 131): + (+ ≤ 5); Fold change Mouse Liver GemC TP produced compared to GemU TP ([1]; listed as drawing 131): + (+ ≤ 5)
4 | C[C@H](NP(=O)(OC[C@H]1O[C@@H](n2ccc(N)nc2=O)C(F)(F)[C@@H]1O)Oc1ccccc1)C(=O)OCc1ccccc1 (single isomer, unassigned) [drawing 127] | – | – | – | Fold change Mouse Liver GemC TP compared to Gemcitabine ([1]; listed as drawing 130): ++++ (25 < ++++ ≤ 50); Fold change Mouse Liver GemC TP produced compared to GemU TP ([1]; listed as drawing 130): +++ (10 < +++ ≤ 25)
5 | Nc1ccn([C@@H]2O[C@H](CO)[C@@H](O)C2(F)F)c(=O)n1 [Gemcitabine, gemcitabine] | – | + (+ ≤ 5) | – | –
6 | Nc1ccn([C@@H]2O[C@H](CO)[C@@H](O)C2(F)F)c(=O)n1 [drawing 125] | – | – | ≤ 0.01 µM | –

— patent US10030044B2, “Nucleotides for the treatment of liver cancer” (IDENIX PHARMACEUTICALS LLC, priority 2013, dated 2018)
